Data from ChEMBL document CHEMBL5131475, “Metallo-β-lactamases inhibitor fisetin attenuates meropenem resistance in NDM-1-producing Escherichia coli” (Eur J Med Chem, 2022).
In brackets after ≈: the same amount, converted by molar mass.

What was measured:
Format in all cases: functional
Conditions in all cases: time 18-24 hrs
Escherichia coli [1] = experiment: Antibacterial activity against pET28a-NDM-1 positive Escherichia coli BL21(DE3) isolates assessed as inhibition of bacterial growth incubated for 18 to 24 hrs by CLSI based broth microdilution method
Escherichia coli [2] = experiment: Antibacterial activity against NDM-1 positive Escherichia coli ZC-YN3 isolates assessed as inhibition of bacterial growth incubated for 18 to 24 hrs by CLSI based broth microdilution method
Escherichia coli [3] = experiment: Antibacterial activity against NDM-1 negative Escherichia coli BL21(DE3) pET28a isolates assessed as inhibition of bacterial growth incubated for 18 to 24 hrs by CLSI based broth microdilution method
Escherichia coli [4] = experiment: Antibacterial activity against NDM-1 negative Escherichia coli ATCC25922 isolates assessed as inhibition of bacterial growth incubated for 18 to 24 hrs by CLSI based broth microdilution method
Escherichia coli [5] = experiment: Antibacterial activity against NDM-1 positive MCR1 carrying Escherichia coli ZJ487 isolates assessed as inhibition of bacterial growth incubated for 18 to 24 hrs by CLSI based broth microdilution method

MIC (Escherichia coli [1]) [µg/mL] | MIC (Escherichia coli [2]) [µg/mL] | Compound | MIC (Escherichia coli [3]) [µg/mL] | MIC (Escherichia coli [4]) [µg/mL] | MIC (Escherichia coli [5]) [µg/mL]
1020 (≈ 2510 µM) | 1020 (≈ 2510 µM) | CCC[C@@H]1C[C@@H](C(=O)N[C@@H]([C@H]2O[C@H](SC)[C@H](O)[C@@H](O)[C@H]2O)[C@@H](C)O)N(C)C1 [LINCOMYCIN] |  |  | 
1.67 | 1.33 | COLISTIN |  |  | 
1020 (≈ 1240 µM) | 13.3 (≈ 16.2 µM) | CO[C@H]1/C=C/O[C@@]2(C)Oc3c(C)c(O)c4c(O)c(c(/C=N/N5CCN(C)CC5)c(O)c4c3C2=O)NC(=O)/C(C)=C\C=C\[C@H](C)[C@H](O)[C@@H](C)[C@@H](O)[C@@H](C)[C@H](OC(C)=O)[C@@H]1C [RIFAMPIN] |  |  | 
512 (≈ 1120 µM) | 512 (≈ 1120 µM) | CO/N=C(\C(=O)N[C@@H]1C(=O)N2C(C(=O)O)=C(COC(C)=O)CS[C@H]12)c1csc(N)n1 [CEFOTAXIME] |  |  | 
853 (≈ 2440 µM) | 853 (≈ 2440 µM) | CC1(C)S[C@@H]2[C@H](NC(=O)[C@H](N)c3ccccc3)C(=O)N2[C@H]1C(=O)O [AMPICILLIN] |  |  | 
512 (≈ 1540 µM) | 853 (≈ 2570 µM) | CN[C@@H]1[C@H](O)[C@H](NC)[C@H]2O[C@@]3(O)C(=O)C[C@@H](C)O[C@H]3O[C@@H]2[C@H]1O [SPECTINOMYCIN] |  |  | 
128 | 64 | C[C@H]1c2cccc(O)c2C(=O)C2=C(O)[C@]3(O)C(=O)C(C(N)=O)=C(O)[C@@H](N(C)C)[C@@H]3[C@@H](O)[C@@H]21.O [DOXYCYCLINE] |  |  | 
512 (≈ 1150 µM) | 128 (≈ 288 µM) | CN(C)[C@@H]1C(O)=C(C(N)=O)C(=O)[C@@]2(O)C(O)=C3C(=O)c4c(O)cccc4[C@@](C)(O)[C@H]3C[C@@H]12 [TETRACYCLINE] |  |  | 
512 (≈ 1060 µM) | 853 (≈ 1760 µM) | NC[C@H]1O[C@H](O[C@H]2[C@H](O)[C@@H](O[C@H]3O[C@H](CO)[C@@H](O)[C@H](N)[C@H]3O)[C@H](N)C[C@@H]2N)[C@H](O)[C@@H](O)[C@@H]1O [KANAMYCIN] |  |  | 
26.7 (≈ 89.2 µM) | 26.7 (≈ 89.2 µM) | C[C@@H](O)[C@H]1C(=O)N2C(C(=O)O)=C(SCCNC=N)C[C@H]12 [IMIPENEM ANHYDROUS] |  |  | 
53.3 (≈ 91.6 µM) | 256 (≈ 440 µM) | CN[C@@H]1[C@H](O[C@H]2[C@H](O[C@H]3[C@H](O)[C@@H](O)[C@H](N=C(N)N)[C@@H](O)[C@@H]3N=C(N)N)O[C@@H](C)[C@]2(O)C=O)O[C@@H](CO)[C@H](O)[C@H]1O [STREPTOMYCIN] |  |  | 

Compound | MIC (Escherichia coli [1]) [µg/mL] | MIC (Escherichia coli [2]) [µg/mL] | MIC (Escherichia coli [3]) [µg/mL] | MIC (Escherichia coli [4]) [µg/mL] | MIC (Escherichia coli [5]) [µg/mL]
C[C@@H](O)[C@H]1C(=O)N2C(C(=O)O)=C(S[C@@H]3CN[C@H](C(=O)N(C)C)C3)[C@H](C)[C@H]12 [MEROPENEM] | 37.3 (≈ 97.3 µM) | 16 (≈ 41.7 µM) | 0.01 (≈ 0.0261 µM) | 0.01 (≈ 0.0261 µM) | 21.3 (≈ 55.5 µM)
CS(=O)(=O)c1ccc([C@@H](O)[C@@H](CF)NC(=O)C(Cl)Cl)cc1 [FLORFENICOL] | 1020 (≈ 2850 µM) | 427 (≈ 1190 µM) |  |  | 
CN[C@H](CC(C)C)C(=O)N[C@H]1C(=O)N[C@@H](CC(N)=O)C(=O)N[C@H]2C(=O)N[C@H]3C(=O)N[C@H](C(=O)N[C@H](C(=O)O)c4cc(O)cc(O)c4-c4cc3ccc4O)[C@H](O)c3ccc(c(Cl)c3)Oc3cc2cc(c3O[C@@H]2O[C@H](CO)[C@@H](O)[C@H](O)[C@H]2O[C@H]2C[C@](C)(N)[C@H](O)[C@H](C)O2)Oc2ccc(cc2Cl)[C@H]1O [VANCOMYCIN] | 683 (≈ 471 µM) | 512 (≈ 353 µM) |  |  | 
